Results taken from patent US20250144067A1, “PERSONALIZED STARVATION THERAPY FOR CANCER” (Faeth Therapeutics, Inc., priority 2021, published 2025).
Structures can show the parent of a compound that is named as a salt.

Assays:
[1] = tested on: NCI-H292 lung cancer cells; experiment: FDA drug screening, complete media vs cholesterol-free media without statin (TABLE 1); format: cell-based, human
[2] = tested on: NCI-H292 lung cancer cells; experiment: FDA drug screening, complete media vs cholesterol-free media with simvastatin (TABLE 2); format: cell-based, human; conditions: for Cholesterol-free media + simvastatin (0.04 μM) / Complete Media: NCI-H292 cells
[3] = NCI-H292 cells, cholesterol-free media without statin, FDA drug library screen
[4] = NCI-H292 cells, complete media, FDA drug library screen
[5] = complete vs cholesterol-free media, >0 enhanced anti-cancer activity, about 0 neutral, <0 antagonist
[6] = Complete minus Cholesterol-free, >0 enhanced anti-cancer activity, about 0 neutral, <0 antagonist
[7] = FDA drug library screen, cholesterol-free media with simvastatin 0.04 μM
[8] = FDA drug library screen, complete media
[9] = complete media minus cholesterol-free media + simvastatin, >0 enhanced anti-cancer activity, about 0 neutral, <0 antagonist
[10] = NCI-H292 cells, cholesterol-free media without statin
[11] = complete vs cholesterol-free media, greater than 0 enhanced anti-cancer activity, about 0 neutral, below 0 antagonists
[12] = drug in cholesterol-free media with simvastatin 0.04 μM
[13] = complete media vs cholesterol-free media + simvastatin (0.04 μM), >0 enhanced anti-cancer activity, about 0 neutral, <0 antagonist
[14] = Complete minus Cholesterol-free, greater than 0 enhanced anti-cancer activity, about 0 neutral, below 0 antagonist
[15] = NCI-H292 cells, FDA drug library screen, cholesterol-free media without statin
[16] = NCI-H292 cells, FDA drug library screen, complete media
[17] = FDA library drug in cholesterol-free media with simvastatin 0.04 μM
[18] = FDA library drug in complete media
[19] = cholesterol-free media with simvastatin 0.04 μM, cell growth value in FDA drug screen
[20] = complete media, cell growth value in FDA drug screen
[21] = Complete minus Cholesterol-free, greater than 0 enhanced anti-cancer activity, about 0 neutral, below 0 antagonists
[22] = NCI-H292 cells in cholesterol-free media without statin
[23] = NCI-H292 cells in complete media
[24] = Complete minus Cholesterol-free, […]
[25] = complete media vs cholesterol-free media + simvastatin (0.04 μM), […]

| Compound | Cholesterol-free [1, 3] | Complete [1, 4] | Difference [1, 6] | Complete Media [2, 8] | Difference [2, 9] | Cholesterol-free media + simvastatin (0.04 μM) [2, 12] | Complete Media ([2]; drug in complete media) | Difference [2, 13] | further results |
| --- | --- | --- | --- | --- | --- | --- | --- | --- | --- |
| CC(=O)Nc1nnc(S(N)(=O)=O)s1 [Acetazolamide] | 0.821 | 0.9414 | – | – | – | – | – | – | Difference [1, 5]: 0.12; Cholesterol-free media + simvastatin (0.04 μM) ([2]; cholesterol-free media with simvastatin 0.04 μM, FDA drug library screen (TABLE 2)): 0.9594; Complete Media ([2]; complete media, FDA drug library screen (TABLE 2)): 0.9398; Difference ([2]; complete media minus cholesterol-free media + simvastatin (0.04 μM), >0 enhanced anti-cancer activity, about 0 neutral, <0 antagonist): −0.02 |
| COc1ccc(-n2nc(C(N)=O)c3c2C(=O)N(c2ccc(N4CCCCC4=O)cc2)CC3)cc1 [Apixaban] | 0.9998 | 0.9349 | −0.06 | 1.135 | 0.14 | – | – | – | Cholesterol-free media + simvastatin (0.04 μM) [2, 7]: 0.9978 |
| CCCCCCNC(=O)n1cc(F)c(=O)[nH]c1=O [Carmofur] | – | – | – | – | – | 0.7692 | 0.6005 | −0.17 | Cholesterol-free [1, 10]: 0.5487; Complete ([1]; NCI-H292 cells, complete media): 0.2009; Difference [1, 11]: −0.35 |
| O=C(O)c1cc(O)c(O)c(O)c1 [Gallic acid] | – | – | – | – | – | – | – | −0.48 | Difference [1, 14]: −0.08; Cholesterol-free [1, 15]: 1.301; Complete [1, 16]: 1.222; Cholesterol-free media + simvastatin (0.04 μM) [2, 17]: 2.089; Complete Media [2, 18]: 1.613 |
| CN1C(=O)CC(c2ccccc2)C1=O (centres unmarked) [Phensuximide] | – | – | −0.30 | – | – | 1.556 | 1.333 | −0.22 | Cholesterol-free [1, 10]: 1.128; Complete ([1]; NCI-H292 cells, complete media): 0.8334 |
| COc1c(N2CCNC(C)C2)c(F)cc2c(=O)c(C(=O)O)cn(C3CC3)c12 (centres unmarked) [Gatifloxacin] | 1.137 | 1.266 | – | – | 0.08 | – | – | – | Difference [1, 5]: 0.13; Cholesterol-free media + simvastatin (0.04 μM) [2, 19]: 0.9418; Complete Media [2, 20]: 1.02 |
| CN(C)N(C)C(=O)[C@@]1(Cc2ccccc2)CCCN(C(=O)[C@@H](Cc2c[nH]c3ccccc23)NC(=O)C(C)(C)N)C1 [Anamorelin] | – | – | – | – | 0.10 | – | – | – | Difference [1, 21]: −0.54; Cholesterol-free [1, 22]: 1.02; Complete [1, 23]: 0.4827; Cholesterol-free media + simvastatin (0.04 μM) [2, 19]: 1.263; Complete Media [2, 20]: 1.358 |
| Cc1c(C)c2c(c(C)c1O)CC[C@@](C)(CCC[C@H](C)CCC[C@H](C)CCCC(C)C)O2 [α-Vitamin E] | – | – | – | – | – | – | – | −0.59 | Cholesterol-free [1, 10]: 1.5; Complete ([1]; NCI-H292 cells, complete media): 1.082; Difference [1, 11]: −0.42; Cholesterol-free media + simvastatin (0.04 μM) [2, 17]: 1.493; Complete Media [2, 18]: 0.9076 |
| COC(=O)N[C@H](C(=O)N1CC2(CC2)C[C@H]1c1nc(-c2ccc3c(c2)C(F)(F)c2cc(-c4ccc5[nH]c([C@@H]6[C@H]7CC[C@H](C7)N6C(=O)[C@@H](NC(=O)OC)C(C)C)nc5c4)ccc2-3)c[nH]1)C(C)C [Ledipasvir (acetone)] | – | – | – | – | – | – | – | −0.41 | Difference [1, 14]: −0.13; Cholesterol-free [1, 15]: 0.5672; Complete [1, 16]: 0.4332; Cholesterol-free media + simvastatin (0.04 μM) [2, 17]: 1.383; Complete Media [2, 18]: 0.9707 |
| (−)-Limonene | 1.299 | 1.515 | – | 1.422 | 0.38 | – | – | – | Difference [1, 5]: 0.22 |
| Nc1ccc(S(=O)(=O)c2ccc(N)cc2)cc1 [Dapsone] | – | – | – | 1.132 | 0.16 | – | – | – | Difference [1, 21]: −0.48; Cholesterol-free [1, 22]: 1.475; Complete [1, 23]: 0.9984; Cholesterol-free media + simvastatin (0.04 μM) [2, 7]: 0.9689 |
| COc1cc([C@@H]2c3cc4c(cc3[C@@H](O[C@@H]3O[C@@H]5CO[C@@H](C)O[C@H]5[C@H](O)[C@H]3O)[C@H]3COC(=O)[C@H]23)OCO4)cc(OC)c1O [Etoposide] | – | – | −0.29 | – | – | 0.718 | 0.5014 | −0.22 | Cholesterol-free [1, 10]: 0.7069; Complete ([1]; NCI-H292 cells, complete media): 0.4154 |
| Cn1c(=O)c2c(ncn2CC(O)CO)n(C)c1=O (centres unmarked) [Diphylline] | – | – | – | – | – | 1.247 | 1.05 | – | Difference [1, 24]: −0.69; Cholesterol-free [1, 22]: 1.559; Complete [1, 23]: 0.8732; Difference [2, 25]: −0.20 |
| (S)-Timolol (Maleate) | 1.235 | 1.191 | −0.04 | – | 0.05 | – | – | – | Cholesterol-free media + simvastatin (0.04 μM) [2, 19]: 1.237; Complete Media [2, 20]: 1.285 |
| CCCCC(=O)OCC(=O)[C@]1(O)Cc2c(O)c3c(c(O)c2[C@@H](O[C@H]2C[C@H](NC(=O)C(F)(F)F)[C@H](O)[C@H](C)O2)C1)C(=O)c1c(OC)cccc1C3=O [Valrubicin] | 0.04622 | 0.06624 | 0.02 | – | 0.11 | – | – | – | Cholesterol-free media + simvastatin (0.04 μM) [2, 19]: 0.07499; Complete Media [2, 20]: 0.1845 |
| CN(c1nccc(=O)[nH]1)C1CCN(c2nc3ccccc3n2Cc2ccc(F)cc2)CC1 [Mizolastine] | – | – | – | 0.8007 | – | – | – | −0.15 | Difference [1, 14]: −0.17; Cholesterol-free [1, 15]: 1.446; Complete [1, 16]: 1.273; Cholesterol-free media + simvastatin (0.04 μM) [2, 7]: 0.9531 |
| CC=CC(=O)N(CC)c1ccccc1C [Crotamiton] | – | – | – | – | – | 1.259 | 1.088 | – | Difference [1, 24]: −0.17; Cholesterol-free [1, 15]: 1.084; Complete [1, 16]: 0.9155; Difference [2, 25]: −0.17 |
| C=CCNc1nc(NCC=C)nc(N2CCN(C(c3ccc(F)cc3)c3ccc(F)cc3)CC2)n1 [Almitrine mesylate] | 0.7257 | 0.8177 | – | 0.6708 | – | – | – | −0.09 | Difference [1, 5]: 0.09; Cholesterol-free media + simvastatin (0.04 μM) [2, 7]: 0.7616 |
| CC1CC(OC(=O)C(O)c2ccccc2)CC(C)(C)C1 (centres unmarked) [Cyclandelate] | – | – | −0.23 | – | – | 1.188 | 0.9668 | −0.22 | Cholesterol-free [1, 10]: 1.162; Complete ([1]; NCI-H292 cells, complete media): 0.935 |
| CC(=O)O[C@@]12CO[C@@H]1C[C@H](O)[C@@]1(C)C(=O)[C@H](O)C3=C(C)[C@@H](OC(=O)[C@H](O)[C@@H](NC(=O)OC(C)(C)C)c4ccccc4)C[C@@](O)([C@@H](OC(=O)c4ccccc4)[C@H]21)C3(C)C [Docetaxel (Trihydrate)] | 0.2507 | 0.2029 | −0.05 | 0.2794 | – | – | – | −0.09 | Cholesterol-free media + simvastatin (0.04 μM) [2, 7]: 0.3708 |
| CCCCOc1cc(C(=O)NCCN(CC)CC)c2ccccc2n1 [Dibucaine (hydrochloride)] | – | – | – | 1.391 | 0.59 | – | – | – | Difference [1, 21]: −0.71; Cholesterol-free [1, 22]: 1.433; Complete [1, 23]: 0.7196; Cholesterol-free media + simvastatin (0.04 μM) [2, 7]: 0.7966 |
| CCCCCCOC(=O)CCC(=O)CN [Hexaminolevulinate (hydrochloride)] | 0.7384 | 0.7376 | 0.00 | – | – | 1.074 | 0.8971 | −0.18 | – |
